Columns and labels:
SK-OV-3 cells = assay: Cytotoxic activity, WST-1 assay, ovarian cancer SK-OV-3; assay type: cell-based, human; conditions: for SI (IC50 HFF-1/IC50 cancer line) SK-OV-3: HFF-1 vs SK-OV-3; for IC50: Homo sapiens, ovarian cancer SK-OV-3, 72 h, WST-1
From the text: (§1) Anticancer activity of compounds 11–14 was designated against following human cancer cell lines: melanoma (Colo-829), ovarian cancer (SK-OV-3), breast cancer (MDA-MB-231, T47D and MCF-7), lung cancer (A549) and normal fibroblasts (HFF-1). As a reference substance, the doxorubicin was used. The results are presented in Table 1 as IC50, where IC50 means the concentration of tested compounds (µM) causing the growth inhibition of 50% for given tumor cells. The negative value (Neg.) means that the IC50 is higher than 30 µM. Selectivity index (SI) as the ratio of the IC50 for normal fibroblast (HFF-1) to IC50 of the corresponding cell line, is presented in Table S2.
(§2) Compounds 7–14 and doxorubicin were tested for cytotoxic activity in vitro against panel of human cancer cell lines: melanoma (Colo-829, ATCC, Rockville, MD, USA), ovarian cancer (SK-OV-3, ATCC, Rockville, MD, USA), breast cancer (T47D, MCF-7, and MDA-MB-231, ATCC, Rockville, MD, USA) and lung cancer (A549, ATCC, Rockville, MD, USA). The cultured cells were kept at 37 °C and 5% CO2. The cells were seeded (5 × 10^4 cells/well/[…] DMEM supplemented with 10% FCS and streptomycin/penicillin) using 96-well plates (Nunc Thermo Fisher Scientific, Waltham, MA, USA). The tested compounds 7–14 with the concentration of 1–100 µg/mL DMSO were inducted with the cancer cells for 72 h. The WST-1-formazan (proliferation reagent WST-1 assay, Roche Diagnostics, Mannheim, Germany) was detected using a microplate reader at 450 nm. Results were expressed as a mean value of at least three independent experiments performed in triplicate.

[1] = target: T1, NQO1 (DT-diaphorase, EC 1.6.5.5, human recombinant) (Homo sapiens, UniProt P15559); assay: NQO1 substrate NADPH recycling enzymatic assay; assay type: biochemical; conditions: for NQO1 activity (enzymatic conversion rate): compound 10 µmol/L, pH 7.4, 25 °C, absorbance at 340 nm
T1 construct: purchased Sigma-Aldrich
T1 sequence (P15559 whole entry): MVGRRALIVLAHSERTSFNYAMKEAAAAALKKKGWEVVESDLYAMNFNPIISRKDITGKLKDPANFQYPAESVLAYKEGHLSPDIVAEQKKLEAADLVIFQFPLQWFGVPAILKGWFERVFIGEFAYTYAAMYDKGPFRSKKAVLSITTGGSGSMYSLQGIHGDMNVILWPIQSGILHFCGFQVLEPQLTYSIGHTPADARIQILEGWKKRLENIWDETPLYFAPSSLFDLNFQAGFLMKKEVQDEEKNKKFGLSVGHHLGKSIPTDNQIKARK
Method: The interaction between 1,4-quinone moiety of hybrid and NQO1 protein leads to reduction in quinone to hydroquinone and production of reactive oxide form (ROS). According to a literature method, the ability of hybrids 11–14 and streptonigrin (ST) to be a substrate for NQO1 was examined by measuring the oxidation of NADPH to NADP^+ [29, 32].
Compounds 11–14 (10 µmol/L) were tested as NQO1 substrates using the NADPH recycling assay according to the literature method. The recombinant NQO1 (DT-diaphorase, EC 1.6.5.5, human recombinant, Sigma-Aldrich) was used, and the oxidation of NADPH to NADP^+ was measured at the absorption wavelength of 340 nm on the BioTek 800TS microplate reader (BioKom, Janki, Poland). Compounds were dissolved in dimethyl sulfoxide (2 µL) and added to the 96-well plate. The NQO1 protein (1.4 µg/mL) in 50 mmol/L potassium phosphate buffer (pH = 7.4) was added to each well (198 µL) (Nunc Thermo Fisher Scientific, Waltham, MA, USA). Once the 96-well plate was filled with the assay solutions, except the NADPH solution, it was placed into the instrument and left to sit for 5 min before starting the measurements. The enzymatic reaction was initiated by automatically dispensing the NADPH solution into the wells, and data were recorded at 10 s intervals for 5 min at 25 °C. The linear part of the absorbance vs. time graphs (the first 20 s to 1 min) was fitted, and the slopes were calculated. NADPH oxidation rates were compared with reactions lacking the tested compound. Initial velocities were calculated, and data were expressed as µmol NADPH/µmol NQO1/min. All reactions were carried out at least in triplicate.

HFF-1 cells = assay: Cytotoxic activity, WST-1 assay, normal fibroblasts HFF-1; assay type: cell-based; conditions: Homo sapiens, normal fibroblasts HFF-1, 72 h
From the text: as §1, §2

MCF-7 cells = assay: Cytotoxic activity, WST-1 assay, breast cancer MCF-7; assay type: cell-based, human; conditions: for SI (IC50 HFF-1/IC50 cancer line) MCF-7: HFF-1 vs MCF-7; for IC50: Homo sapiens, MCF7, breast cancer MCF-7, 72 h, WST-1
From the text: as §1, §2

MDA-MB-231 cells = assay: Cytotoxic activity, WST-1 assay, breast cancer MDA-MB-231; assay type: cell-based, human; conditions: for SI (IC50 HFF-1/IC50 cancer line) MDA-MB-231: HFF-1 vs MDA-MB-231; for IC50: Homo sapiens, breast cancer MDA-MB-231, 72 h, WST-1
From the text: as §1, §2

A549 cells = assay: Cytotoxic activity, WST-1 assay, lung cancer A549; assay type: cell-based, human; conditions: for SI (IC50 HFF-1/IC50 cancer line) A549: HFF-1 vs A549; for IC50: Homo sapiens, lung cancer A549, 72 h, WST-1
From the text: as §1, §2

T47D cells = assay: Cytotoxic activity, WST-1 assay, breast cancer T47D; assay type: cell-based, human; conditions: for SI (IC50 HFF-1/IC50 cancer line) T47D: HFF-1 vs T47D; for IC50: Homo sapiens, breast cancer T47D, 72 h, WST-1
From the text: as §1, §2

Colo-829 cells = assay: Cytotoxic activity, WST-1 assay, melanoma Colo-829; assay type: cell-based, human; conditions: for SI (IC50 HFF-1/IC50 cancer line) Colo-829: HFF-1 vs Colo-829; for IC50: Homo sapiens, melanoma Colo-829, 72 h, WST-1
From the text: as §1, §2

| SMILES | SI (IC50 HFF-1/IC50 cancer line) SK-OV-3 (SK-OV-3 cells) | IC50 (SK-OV-3 cells) [µM] | NQO1 activity (enzymatic conversion rate) [1] [µmol NADPH/µmol NQO1/min] | IC50 (HFF-1 cells) [µM] | SI (IC50 HFF-1/IC50 cancer line) MCF-7 (MCF-7 cells) | IC50 (MCF-7 cells) [µM] | SI (IC50 HFF-1/IC50 cancer line) MDA-MB-231 (MDA-MB-231 cells) | IC50 (MDA-MB-231 cells) [µM] | SI (IC50 HFF-1/IC50 cancer line) A549 (A549 cells) | IC50 (A549 cells) [µM] | SI (IC50 HFF-1/IC50 cancer line) T47D (T47D cells) | IC50 (T47D cells) [µM] | SI (IC50 HFF-1/IC50 cancer line) Colo-829 (Colo-829 cells) | IC50 (Colo-829 cells) [µM] | Enzymatic conversion rate relative to the 2-methyl-5,8-quinolinedione analogue ([1]; 11c vs 12c, 11e vs 12e) [times] | Activity against MCF-7 relative to A549 (MCF-7 cells; fold more active against MCF-7 than A549) [times] | NQO1 activity (enzymatic conversion rate) ([1]; listed as streptonigrin) [µmol NADPH/µmol NQO1/min] |
| --- | --- | --- | --- | --- | --- | --- | --- | --- | --- | --- | --- | --- | --- | --- | --- | --- | --- |
| O=C1C(Cl)=C(Oc2cccc3ccc(N4CCOCC4)nc23)C(=O)c2cnccc21 [Compound 13f, 6-chloro-7-{[2-(morpholin-4-yl)quinolin-8-yl]oxy}isoquinoline-5,8-dione] | 14.95 | 1.23 ± 0.08 | 143 ± 26 | 18.4 ± 0.35 | 17.85 | 1.03 ± 0.19 | 141.46 | 0.13 ± 0.05 | 15.07 | 1.22 ± 0.08 | 8.55 | 2.15 ± 0.06 | 8.76 | 2.1 ± 0.06 | – | – | – |
| O=C1C(Cl)=C(Oc2cccc3ccc(N4CCOCC4)nc23)C(=O)c2ccccc21 [Compound 14f, 2-chloro-3-{[2-(morpholin-4-yl)quinolin-8-yl]oxy}naphthalene-1,4-dione] | – | 14.2 ± 0.76 | 87 ± 15 | 20.3 ± 0.87 | – | 17.4 ± 1.02 | – | 2.35 ± 0.09 | – | 14 ± 0.86 | – | > 30 | – | 11.3 ± 1.97 | – | – | – |
| O=C1C(Cl)=C(Oc2cccc3ccc(N4CCCC4)nc23)C(=O)c2ncccc21 [Compound 11e, 6-chloro-7-{[2-(pyrrolidin-1-yl)quinolin-8-yl]oxy}quinoline-5,8-dione] | 6.66 | 1.72 ± 0.09 | 1082 ± 51 | 11.5 ± 0.69 | 5.64 | 2.03 ± 0.03 | 5.81 | 1.97 ± 0.13 | 0.94 | 12.1 ± 1.06 | 0.55 | 20.8 ± 1.03 | 0.76 | 15 ± 0.32 | 1.8 | ~6 | – |
| O=C1C(Cl)=C(Oc2cccc3ccc(N4CCCC4)nc23)C(=O)c2cnccc21 [Compound 13e, 6-chloro-7-{[2-(pyrrolidin-1-yl)quinolin-8-yl]oxy}isoquinoline-5,8-dione] | 0.98 | 15.8 ± 0.26 | 214 ± 21 | 15.5 ± 0.72 | 0.92 | 16.9 ± 0.5 | 0.93 | 16.6 ± 0.38 | 1.11 | 14 ± 0.26 | – | > 30 | 0.79 | 19.6 ± 1.32 | – | – | – |
| Cc1ccc2c(n1)C(=O)C(Oc1cccc3ccc(N4CCOCC4)nc13)=C(Cl)C2=O [Compound 12f, 6-chloro-2-methyl-7-{[2-(morpholin-4-yl)quinolin-8-yl]oxy}quinoline-5,8-dione] | 1.48 | 13.5 ± 0.21 | 210 ± 20 | 19.9 ± 0.93 | 1.41 | 14.1 ± 0.67 | 1.95 | 10.2 ± 0.28 | 1.72 | 11.6 ± 0.72 | 1.15 | 17.3 ± 0.26 | 1.49 | 13.3 ± 0.21 | – | – | – |
| O=C1C(Cl)=C(Oc2cccc3ccc(N4CCOCC4)nc23)C(=O)c2ncccc21 [Compound 11f, 6-chloro-7-{[2-(morpholin-4-yl)quinolin-8-yl]oxy}quinoline-5,8-dione] | 2.35 | 10.9 ± 0.48 | 113 ± 19 | 25.64 ± 0.19 | 1.58 | 16.21 ± 0.12 | 1.86 | 13.8 ± 1.09 | 2.03 | 12.6 ± 0.82 | 1.38 | 18.6 ± 0.62 | 1.83 | 14 ± 1.16 | – | – | – |
| COc1cccc2c1C(=O)c1c(O)c3c(c(O)c1C2=O)C[C@@](O)(C(=O)CO)C[C@@H]3O[C@H]1C[C@H](N)[C@H](O)[C@H](C)O1 [Doxorubicin, doxorubicin, reference compound] | 0.80 | 0.15 ± 0.03 | – | 0.12 ± 0.03 | 1.00 | 0.12 ± 0.05 | 0.19 | 0.64 ± 0.06 | 6.00 | 0.02 ± 0.01 | 3.00 | 0.04 ± 0.01 | 2.40 | 0.05 ± 0.01 | – | – | – |
| COC1=C(N)C(=O)c2nc(-c3nc(C(=O)O)c(C)c(-c4ccc(OC)c(OC)c4O)c3N)ccc2C1=O [ST, streptonigrin, reference compound] | – | – | 725 ± 84 | – | – | – | – | – | – | – | – | – | – | – | – | – | 725 |
